Converted amounts (≈) assume the structure as drawn.
Columns and labels:
[1] = Half life in Sprague-Dawley rat at 2 mg/kg, iv; format: ADME, organism-based; settings: in vivo
Rattus norvegicus [2] = test: AUC (0 to infinity) in Sprague-Dawley rat at 10 mg/kg, po; format: ADME, organism-based; set-up: dose 10 mg/kg, time infinity, route oral; settings: in vivo
[3] = Cmax in Sprague-Dawley rat at 10 mg/kg, po; format: ADME, organism-based; set-up: dose 10 mg/kg, route oral; settings: in vivo
Staphylococcus aureus [4] = test: Antibacterial activity against methicillin-sensitive Staphylococcus aureus 14-4; format: functional
Enterococcus faecalis [5] = test: Antibacterial activity against Enterococcus faecalis 14-1; format: functional
Staphylococcus aureus [6] = test: Antibacterial activity against methicillin-sensitive Staphylococcus aureus 14-2; format: functional
[7] = tested on: Staphylococcus epidermidis; test: Antibacterial activity against methicillin-sensitive Staphylococcus epidermidis 14-2; format: functional
[8] = Clearance in Sprague-Dawley rat at 2 mg/kg, iv; format: ADME, organism-based; settings: in vivo
[9] = MRT (0 to t) in Sprague-Dawley rat at 10 mg/kg, po; format: ADME, organism-based; settings: in vivo
[10] = Cmax in Sprague-Dawley rat at 2 mg/kg, iv; format: ADME, organism-based; set-up: dose 2 mg/kg, route intravenous; settings: in vivo
Staphylococcus aureus [11] = test: Antibacterial activity against methicillin-resistant Staphylococcus aureus 14-5; format: functional
[12] = tested on: Staphylococcus epidermidis; test: Antibacterial activity against methicillin-sensitive Staphylococcus epidermidis 14-1; format: functional
[13] = AUC (0 to infinity) in Sprague-Dawley rat at 2 mg/kg, iv; format: ADME, organism-based; set-up: dose 2 mg/kg, route intravenous, time infinity; settings: Sprague-Dawley, in vivo
[14] = Volume of distribution at steady state in Sprague-Dawley rat at 2 mg/kg, iv; format: ADME, organism-based; settings: in vivo, read-out: Vdss
[15] = MRT (0 to t) in Sprague-Dawley rat at 2 mg/kg, iv; format: ADME, organism-based; settings: in vivo
Rattus norvegicus [16] = test: Volume of distribution at steady state in Sprague-Dawley rat at 10 mg/kg, po; format: ADME, organism-based; settings: in vivo
Escherichia coli [17] = test: Antibacterial activity against Escherichia coli 14-2 expressing extended-spectrum beta-lactamase; format: functional
[18] = tested on: Staphylococcus epidermidis; test: Antibacterial activity against methicillin-resistant Staphylococcus epidermidis 14-1; format: functional
Staphylococcus aureus [19] = test: Antibacterial activity against methicillin-resistant Staphylococcus aureus 14-1; format: functional
[20] = Oral bioavailability in Sprague-Dawley rat at 10 mg/kg; format: ADME, organism-based; settings: in vivo
Escherichia coli [21] = test: Antibacterial activity against Escherichia coli 14-1 expressing extended-spectrum beta-lactamase; format: functional
Escherichia coli [22] = test: Antibacterial activity against Escherichia coli 14-1; format: functional
Enterococcus faecalis [23] = test: Antibacterial activity against Enterococcus faecalis 14-3; format: functional
Rattus norvegicus [24] = test: Half life in Sprague-Dawley rat at 10 mg/kg, po; format: ADME, organism-based; settings: in vivo
[25] = Tmax in Sprague-Dawley rat at 2 mg/kg, iv; format: ADME, organism-based; settings: in vivo
Staphylococcus aureus [26] = test: Antibacterial activity against methicillin-resistant Staphylococcus aureus 14-4; format: functional
[27] = tested on: Staphylococcus epidermidis; test: Antibacterial activity against methicillin-resistant Staphylococcus epidermidis 14-4; format: functional
[28] = AUC (0 to t) in Sprague-Dawley rat at 2 mg/kg, iv; format: ADME, organism-based; settings: Sprague-Dawley, in vivo
Rattus norvegicus [29] = test: Clearance in Sprague-Dawley rat at 10 mg/kg, po; format: ADME, organism-based; settings: in vivo
[30] = AUC (0 to t) in Sprague-Dawley rat at 10 mg/kg, po; format: ADME, organism-based; settings: in vivo
Staphylococcus aureus [31] = test: Antibacterial activity against methicillin-resistant Staphylococcus aureus 14-2; format: functional
[32] = tested on: Staphylococcus epidermidis; test: Antibacterial activity against methicillin-sensitive Staphylococcus epidermidis 14-3; format: functional
Staphylococcus aureus [33] = test: Antibacterial activity against methicillin-sensitive Staphylococcus aureus 14-1; format: functional
Staphylococcus aureus [34] = test: Antibacterial activity against methicillin-sensitive Staphylococcus aureus 14-3; format: functional
Enterococcus faecalis [35] = test: Antibacterial activity against Enterococcus faecalis 14-5; format: functional
[36] = Tmax in Sprague-Dawley rat at 10 mg/kg, po; format: ADME, organism-based; settings: in vivo
Enterococcus faecalis [37] = test: Antibacterial activity against Enterococcus faecalis 14-2; format: functional
Escherichia coli [38] = test: Antibacterial activity against Escherichia coli 14-2; format: functional

CCCC[C@H](CN(O)C=O)C(=O)N1CC2(CC2)C[C@H]1C(=O)Nc1ccc(C)c(Nc2nccc(-c3cccnc3)n2)c1
half-life [1]: 3.6 h | AUC (Rattus norvegicus [2]): 134 ng·h/mL | Cmax [3]: 100 ng/mL | MIC (Staphylococcus aureus [4]): 0.015 µg/mL (≈ 0.0262 µM) | MIC (Enterococcus faecalis [5]): 0.03 µg/mL (≈ 0.0525 µM) | MIC (Staphylococcus aureus [6]): 0.015 µg/mL (≈ 0.0262 µM) | MIC [7]: < 0.008 µg/mL | clearance [8]: 37.7 mL/min/kg | MRT last [9]: 3.32 h | Cmax [10]: 1080 ng/mL | MIC (Staphylococcus aureus [11]): < 0.008 µg/mL | MIC [12]: 0.015 µg/mL (≈ 0.0262 µM) | AUC(0-inf) [13]: 892 ng·h/mL | Vd [14]: 2.6 L/kg | MRT last [15]: 1.15 h | Vdss (Rattus norvegicus [16]): 1772 L/kg | MIC (Escherichia coli [17]): > 128 µg/mL | MIC [18]: < 0.008 µg/mL | MIC (Staphylococcus aureus [19]): 0.015 µg/mL (≈ 0.0262 µM) | bioavailability [20]: 3% | MIC (Escherichia coli [21]): 4 µg/mL (≈ 7 µM) | MIC (Escherichia coli [22]): > 128 µg/mL | MIC (Enterococcus faecalis [23]): 0.03 µg/mL (≈ 0.0525 µM) | t1/2 (Rattus norvegicus [24]): 2.24 h | Tmax [25]: 4.8 min | MIC (Staphylococcus aureus [26]): < 0.008 µg/mL | MIC [27]: < 0.008 µg/mL | AUC(0-t) [28]: 881 ng·h/mL | CL (Rattus norvegicus [29]): 5.57 mL/min/kg | AUC(0-t) [30]: 126 ng·h/mL | MIC (Staphylococcus aureus [31]): 0.015 µg/mL (≈ 0.0262 µM) | MIC [32]: < 0.008 µg/mL | MIC (Staphylococcus aureus [33]): 0.015 µg/mL (≈ 0.0262 µM) | MIC (Staphylococcus aureus [34]): 0.015 µg/mL (≈ 0.0262 µM) | MIC (Enterococcus faecalis [35]): > 128 µg/mL | Tmax [36]: 0.25 h | MIC (Enterococcus faecalis [37]): 0.015 µg/mL (≈ 0.0262 µM) | MIC (Escherichia coli [38]): > 128 µg/mL
